Several values for one entry are separate records, joined by “and”; a condition that tells them apart may be missing. Equal values may be shown once.
Tests used:
p38MAPK phosphorylation = assay: AuF-induced phosphorylation of p38MAPK in SH-SY5Y cells, western blot; format: cell-based, human; details: summary statement
Procedure: Cells were treated with 10 µM AuF with or without SD-444. Phosphorylation was determined by western blot analysis. The amount of each band was quantitated by densitometry and plotted with a linear regression program normalized with β catenin (b-cat).
In the assay, twenty to thirty micrograms of protein samples were loaded on 10-12% SDS-PAGE gels. The proteins were then transferred electrophoretically to nitrocellulose (Whatman, Germany). The blots were blocked by incubation for 1 h at RT in TBS-T (25 mM Tris-HCl pH 7.4, 0.9% NaCl and 0.02% Tween-20) with 4% Difco skim milk (BD, USA), and incubated over-night at 4° C. with the primary antibody: p-p38^MAPK (Thr180/Tyr182), rabbit mAb; p38, rabbit Ab.

[1] = tested on: human neuroblastoma cells (SH-SY5Y); assay: Viability of SH-SY5Y cells after auranofin (AuF) challenge, methylene blue staining; format: cell-based; details: SH-SY5Y pre-treated with 5 µM AuF 30 min, washed, compound added, viability 24 h later
Procedure: Viability of cells pre-treated with 5 µM AuF for 30 min, washed and later exposed to increasing concentrations of SD-444, was determined 24 h later.
A) The anti-apoptotic activity of SD-444 was tested on human neuronal cells SH-SY5Y. The cells were challenged by auranofin (AuF) that induces cellular stress by selectively blocking the thioredoxin reductase activity.
SH-SY5Y cells were plated on 96-well plates and treated with AuF in different concentrations for 30 min. Then the cells were washed with PBS and treated as indicated. Twenty-four hours later, the cells were fixed with glutaraldehyde in final concentration of 0.5% for 10 min. Cells were washed 3 times with DDW dried overnight, and washed once with borate buffer (0.1 M, pH 8.5). The fixed cells were stained with 200 µl of 1% methylene blue dissolved in borate buffer for 1 h. After extensive washing and drying, the color was extracted with 200 µl of 0.1 M HCl for 1 h at 37° C. and absorbance was read in spectrophotometer at 630 nm.

ERK1/2 phosphorylation = assay: AuF-induced phosphorylation of ERK1/2 in PC12 cells, western blot; format: cell-based; details: 10 µM AuF, normalized to total ERK2, read-out: EC50, lowering of AuF induced activation of ERK1/2
Procedure: Cells were treated with 10 µM AuF with or without SDA-341. Phosphorylation was determined by western blot analysis (FIG. 6A). The amount of each band was quantitated by densitometry (FIG. 6B) and plotted with a linear regression program normalized to total ERK2 (FIG. 6C).
The ability of SDA-341 to lower AuF induced activation of ERK1/2 in PC12 cells with the corresponding anti ERK1/2 and ERK2 antibodies was also tested, as shown in FIG. 6. Calculated EC50=80µM.

[2] = tested on: Rotenone -induced model of Parkinson's disease (PD) in rats; assay: Rotarod behavior assay, rotenone model; format: in vivo, Sprague Dawley rats; details: for R.R (rotarod): individual rat, listed as SDA
Procedure: (§1) 1-SD (Rotenone + SD); 2 - SDA (Rotenone + SDA); 3 - Control (Rotenone); 4 -Naive. The experimental groups were comprised of 6 animals for treated groups (1-3) and 2 animals in naive group (4). Rotenone was administrated 3.0 mg/kg intraperitoneally (IP) once a day in the morning (days 1-9). SD 33 mg/kg and SDA 33 mg/kg were administrated intraperitoneally once a day in the afternoon (days 1-9).
(§2) Rearing behavior, rotarod and beam walk tests were performed before initiation of treatment (day 0) as well as on days 4, 8 and 10 of the experiment.
(§3) IP administration: Rotenone was administrated to groups 1-3. Rotenone was injected intraperitoneally at a dose 3.0 mg/kg once a day in the morning (days 1-9). SD and SDA was administrated both at a dose of 33 mg/kg and were injected intraperitoneally once a day in the afternoon (days 1-9). Group number 4 was untreated, and remained as a naive group.
The test was used to evaluate motor coordination and balance. Apparatus was set to accelerate from 4 to 40 rpm in 300 s, and animals from same cage are placed in separate lanes on rod initially rotating at 4 rpm.

[3] = tested on: Rotenone -induced model of Parkinson's disease (PD) in rats; assay: Rat beam walk test, rotenone model; format: in vivo, Sprague Dawley rats; details: for beam end time: individual rat, listed as SDA
Procedure: as §1, §2, §3
Animals were gently placed on 1 m long narrow aluminum beam facing one of the ends and allowed to walk to the end of the beam.

PC12 cells = assay: Phase microscopy of AuF-induced morphological changes in PC12 cells; format: cell-based; details: 2 µM AuF 30 min, washed, 150 µM SDA, 37° C., 4 hrs; listed as SDA
Procedure: PC12 cells were treated with AuF with or without SD-444. Morphological changes were visualized 4 hr later (magnification x200).
(FIG. 7A) Control untreated PC12 cells (FIG. 7B). PC12 cells were treated with AuF (2 µM; 30 min) lose their morphology and become rounded, as compared to untreated cells. […] Cells were treated with AuF (2 µM) for 30 min, washed and then SDA was added at 25 µM or 100 µM. Cells were visualized 4 hr later (magnification, 100 × and 400 x).
C) Phase microscopy studies: The ability of SD-444 to rescue cells from oxidative stress was tested by exposing the PC12 to 2 µM auranofin for 30 min, and after washing incubated with 250 µM SD-444 at 37° C. for additional 4 hrs.
B) Phase microscopy studies: The ability of SDA to rescue the cells from oxidative stress was tested by exposing the PC12 to auranofin 2 µM for 30 min with or without 150 µM SDA. AuF was washed after 30 min and 150 µM SDA was added and allowed to incubate at 37° C. for additional 4 hrs.

[4] = tested on: Rotenone -induced model of Parkinson's disease (PD) in rats; assay: Rat rearing behavior (cylinder) test, rotenone model; format: in vivo, Sprague Dawley rats; details: for Cylinder rise and touch (number of rears in 2 min): individual rat, listed as SDA
Procedure: as §1, §2, §3
Animals were placed in a clear glass cylinder (40 cm high and 20 cm diameter) and number of rears in 2 min was observed. Rear was considered as animals raised their hands above the shoulder and made contact with the wall of cylinder with their forelimb.

[5] = average n=6, day 0 (before treatment)
[6] = day 0 (before treatment), rotenone 3 mg/kg + compound 33 mg/kg IP
[7] = rats, rotenone 3.0 mg/kg IP + compound 33 mg/kg IP, days 1-9

Compound: CC(=O)NC(CS)C(=O)NC(Cc1cccc(O)c1O)C(N)=O (stereo not shown) [SDA-341, Acetyle-Cys-2,3 dihydroxyphenylalanine-amide]
- p38 phosphorylation (AuF-triggered) (p38MAPK phosphorylation): inhibit
- neuronal cell-viability after AuF [1]: increase viability
- EC50 (ERK1/2 phosphorylation): 80 µM
- R.R (rotarod), group average [2, 5]: 285.17 s
- R.R (rotarod), group average ([2]; average n=6, day 4): 286.33 s
- R.R (rotarod), group average ([2]; average n=6, day 8): 266.33 s
- R.R (rotarod), group average ([2]; average n=6, day 10): 227.00 s
- R.R (rotarod) [2, 6]: 278 sec and 300 sec (2×) and 269 sec and 290 sec
- R.R (rotarod) ([2]; day 4): 298 sec and 274 sec and 263 sec and 300 sec (2×) and 283 sec
- R.R (rotarod) ([2]; day 8): 281 s and 249 s and 234 s and 277 s and 268 s and 289 s
- R.R (rotarod) ([2]; day 10): 270 s and 195 s and 123 s and 260 s and 243 s and 271 s
- rotarod test, motor dysregulation mediated by rotenone [2, 7]: significantly reversed
- beam end time, group average [3, 5]: 9.50 s
- beam end time, group average ([3]; average n=6, day 4): 17.50 s
- beam end time, group average ([3]; average n=6, day 8): 25.67 s
- beam end time, group average ([3]; average n=6, day 10): 20.33 s
- beam end time [3, 6]: 7 s and 3 s and 10 s and 8 s and 12 s and 17 s
- beam end time ([3]; day 4): 12 s and 32 s and 14 s and 21 s and 10 s and 16 s
- beam end time ([3]; day 8): 16 s and 23 s and 52 s and 18 s and 19 s and 26 s
- beam end time ([3]; day 10): 22 s and 17 s and 34 s and 10 s and 21 s and 18 s
- Walk-beam test, reversal of rotenone induced imbalance [3, 7]: very effective
- morphology of AuF-treated PC12 cells (PC12 cells): normal morphology
- Cylinder rise and touch, group average [4, 5]: 12.83
- Cylinder rise and touch, group average ([4]; average n=6, day 4): 12.67
- Cylinder rise and touch, group average ([4]; average n=6, day 8): 14.83
- Cylinder rise and touch, group average ([4]; average n=6, day 10): 12.50
- Cylinder rise and touch (number of rears in 2 min) [4, 6]: 18 (2×) and 9 and 12 (2×) and 8
- Cylinder rise and touch (number of rears in 2 min) ([4]; day 4): 14 (2×) and 12 and 11 and 15 and 10
- Cylinder rise and touch (number of rears in 2 min) ([4]; day 8): 15 and 19 (2×) and 8 and 12 and 16
- Cylinder rise and touch (number of rears in 2 min) ([4]; day 10): 11 and 14 (2×) and 9 and 10 and 17
- Cylinder test, maintaining locomotor activity in Rotenone-treated rats [4, 7]: very effective

Reference: US20230192764A1, “NOVEL DOPAMINE PRECURSORS” (Yissum Research Development Company of the Hebrew …, priority 2018, published 2023)
